In patent US20200352201A1, “METHOD OF VACUUM […] WITH PEROXYC[…] SOLUTIONS” (ZEE COMPANY, INC., priority 2019, published 2020):

How the values were obtained:
[1] = Vacuum infusing boneless poultry parts, organoleptic shelf life of the ground product; conditions: vacuum tumbled about 15 minutes at about -0.4 bar, stored at about 4° C., first failure of duplicates
Procedure: Samples of poultry in an amount of about 1 pound were prepared from boneless poultry parts. Each sample was provided in a vacuum container of a vacuum tumbler in the presence of the antimicrobial solution (peroxyacetic acid (“PAA”) or peroxylactic acid (“PLA”)) provided in Table 1, with the control subjected to the same volume of sterile water. The pressure was reduced in the vacuum tumbler to about −0.4 bar, and the contents were rotated in the vacuum-tumbler while under pressure for a period of time of about 15 minutes. Pressure was then returned to atmospheric pressure and the contents of the vacuum container were subjected to grinding and then stored in a sealed plastic bag at about 4° C. The ground product was evaluated daily for appearance and order until reaching failure by abnormal coloration and/or odor. The Control and each microbial concentration sample was performed in duplicate, with the first date of organoleptic failure for the duplicate samples reported in Table 1.

[2] = Vacuum infusing boneless beef parts, organoleptic shelf life of the ground product; conditions: vacuum tumbled about 15 minutes at about -0.4 bar, stored at about 4° C., first failure of duplicates
Procedure: Samples of beef in an amount of about 1 pound were prepared from boneless beef parts. Each sample was provided in a vacuum container of a vacuum tumbler in the presence of the antimicrobial solution (peroxyacetic acid (“PAA”) or peroxylactic acid (“PLA”)) provided in Table 2, with the control subjected to the same volume of sterile water. The pressure was reduced in the vacuum tumbler to about −0.4 bar, and the contents were rotated in the vacuum-tumbler while under pressure for a period of time of about 15 minutes. Pressure was then returned to atmospheric pressure and the contents of the vacuum container were subjected to grinding and then stored in a sealed plastic bag at about 4° C. The ground product was evaluated daily for appearance and order until reaching failure by abnormal coloration and/or odor. The Control and each microbial concentration sample was performed in duplicate, with the first date of organoleptic failure for the duplicate samples reported in Table 1.

| Compound | Days to Organoleptic Failure ([1]; 100 ppm) [days] | Days to Organoleptic Failure ([1]; 250 ppm) [days] | Days to Organoleptic Failure ([1]; 500 ppm) [days] | Days to Organoleptic Failure ([1]; 1000 ppm) [days] | Days to Organoleptic Failure ([2]; 100 ppm) [days] | Days to Organoleptic Failure ([2]; 250 ppm) [days] | Days to Organoleptic Failure ([2]; 500 ppm) [days] | Days to Organoleptic Failure ([2]; 1000 ppm) [days] |
| --- | --- | --- | --- | --- | --- | --- | --- | --- |
| CC(O)C(=O)OO (stereo not shown) [PLA, peroxylactic acid] | 11 | 14 | 16 | 19 | 11 | 13 | 15 | 17 |
| peroxyacetic acid [PAA] | 11 | 13 | 17 | 19 | 11 | 13 | 15 | 17 |
